Reference: US10406158B2, “Methods and compositions for treating abnormal cell growth” (Verastem, Inc., priority 2014, dated 2019)

How the values were obtained:
[1] = tested on: mesothelioma cells (Mero-41); assay: Matrigel on-top (MoT) 3D culture, CellTiter-Glo cell viability, 9x9 combination matrix; assay type: cell-based; conditions: MEK inhibitor in combination with FAK inhibitor VS-6063, 96 hours incubation, compared with Bliss, HSA and Loewe models
Description: (§1) Cell Lines: Cancer cell lines were purchased from American Type Culture Collection (Manassas, VA) and cultured under ATCC recommended standard culture conditions. Mero-41 (mesothelioma cell line) were purchased from Sigma-Aldrich (St. Louis, MO) and cultured under ECACC recommended standard culture conditions. […] TOV-21G (ovarian clear cell carcinoma cell line) were cultured under ECACC recommended standard culture conditions. Growth media for all cell lines were supplemented with penicillin (100 units/ml)/streptomycin (100 μg/ml).
(§2) Compound were used at the top concentration 10 uM in a 2-fold dilution. Paclitaxel was dosed at the top concentration 1 uM in a 3-fold dilution.
(§3) A ‘Matrigel on-top’ (MoT) assay where cells were propagated in a 3-dimentional culture was used. Cells were plated above a dense base layer of Matrigel (BD Biosciences, Franklin Lakes, N.J.), diluted 1:1 with culture medium. Single cell preparations were resuspended in dilute Matrigel (1:50 in culture medium) and seeded to cover the Matrigel base layer. This ensured that ovarian cancer cells were surrounded with extracellular matrix (ECM) components, of which collagen and laminin are the major Matrigel constituents. Cells were seeded in a density of 500 cells per well in 384-well black Ultra-low attachment plates with clear bottom (Corning, Tewksbury MA). […] Cell survival/proliferation was assessed by CellTiter-Glo® Luminescent Cell Viability Assay (Promega, Madison, Wis.).
(§4) Combination effects were evaluated by comparing the averaged viability/inhibition to three different null reference models derived from the single agent activities.
(§5) The expected additivity effect is the statistical expectation for the combined effect from independent inhibitors: Mathematically, Bliss (FU)=FUA1 X FUA2, where FUA1 and FUA2 are the unaffected fraction when treated with compounds Al and A2, respectively.

[2] = tested on: breast cancer cells (MDA-MB-231); assay: as above; assay type: cell-based; conditions: MEK inhibitor in combination with FAK inhibitor VS-6063, 96 hours incubation, compared with Bliss, HSA and Loewe models
Description: as §1, §2, §3, §4, §5

| Compound | combination effect on cell viability [1] | combination effect on cell viability [2] |
| --- | --- | --- |
| Cn1cnc2c(F)c(Nc3ccc(Br)cc3Cl)c(C(=O)NOCCO)cc21 [AZD-6244] | more than additive effect | – |
| O=C(NOCCO)c1ccc2cncn2c1Nc1ccc(I)cc1F [GDC-0623] | more than additive effect | more than additive effect |
| O=C(NC[C@H](O)CO)c1ccncc1Nc1ccc(I)cc1F [pimasertib] | more than additive effect | more than additive effect |
| cobimetinib | more than additive effect | more than additive effect |
| trametinib | more than additive effect | more than additive effect |
